# Results published in patent US5626864A, “Preparation of colloidal aqueous solutions of active substances of low solubility” (priority 1993, dated 1997).
# Structures can show the parent of a compound that is named as a salt. Where two headings read alike, the source gives them in different places.
# Key:
# [1] = Physical stability of the solutions (precipitation / flocculation); assay type: physicochemical
# Protocol: (§1) 40 mg of Z were dissolved in 10 ml of dichloromethane/methanol (9+1). All the solvent was removed again from the solution in a rotary evaporator under reduced pressure. 8 ml of a buffer solution (consisting of o-phsophoric acid [0.01 M] and sucrose [0.265 M] and EDTA disodium salt [0.1 mg/ml], pH about 1.9) were added to the residue, and the flask was rotated on the rotary evaporator (without reducing the pressure) with the water at 50° C for 1 h. […] Cooling to room temperature was followed by titration with 2 molar sodium hydroxide solution to pH 6.8, and the total volume was then made up to 10 ml with the abovementioned buffer solution (pH 6.8; titrated with NaOH). […] The clear supernatant was filtered through a 0.2 micrometer syringe filter, and the active substance concentration in this solution was determined by spectrophotometry. The active substance content in this solution was below 0.1 mg/ml.
# (§2) The experiment was carried out like experiment A but 1.0 g of phospholipid (egg lecithin E 100, from Lipoid KG, Ludwigshafen) was weighed in addition to the active substance.
# The active substance content of the solution which had been titrated to pH 6.8 and sterilized by filtration was 4.0 mg/ml. The solution slowly flocculated out after about 12-24 h, both at room temperature and in a refrigerator.
# (§3) The experiment was carried out like experiment B, but after addition of the buffer solution (pH 1.9) and stirring at 50° C. (1 h), 100 microliters of a dilute aqueous solution of glacial acetic acid (120.1 g/l) were added, and this solution was then titrated to pH 4.6 with sodium hydroxide solution (2 molar).
# [2] = Active substance content of solution after 0.2 μm filtration (spectrophotometry); assay type: physicochemical
# Protocol: A derivative of these bisnaphthalimides [drawing 1] was used to investigate the solubility in aqueous formulations as follows: […]
# as §1, §2, §3
# [3] = Sterile filtration through a 0.2 μm filter (criterion for successful solubilization); assay type: physicochemical
# Protocol: The following examples illustrate the invention. The criterion for successful solubilization is the possibility of sterile filtration through a 0.2 μm filter.
# as §1, with “spectrophotometry.” for “spectrophotometry. The active substance content in this solution was below 0.1 mg/ml.”
# as §2, §3
# The pH was adjusted to 4.8.
# [4] = cited from earlier work
# [5] = eg. intravenous administration; cited from earlier work
# [6] = Comparative Example: like Example 1, experiment C
compound,measurement,setting,value
O=C1c2cccc3cc([N+](=O)[O-])cc(c23)C(=O)N1CCCCNCCCN1C(=O)c2cccc3cc([N+](=O)[O-])cc(c23)C1=O [Z],dissolution in acidic buffer,"[1]; Experiment A: buffer pH about 1.9, 50° C, 1 h, no phospholipid",It was possible in this way to dissolve a considerable portion of the active substance
same,precipitation on titration,"[1]; Experiment A: no phospholipid, cooled, titrated to pH 6.8",Most of the active substance precipitated again
same,time to flocculation of solution,"[1]; Experiment B: egg lecithin, pH 6.8, room temperature and refrigerator",12 to 24 h
same,stability of solution,"[1]; Experiment C: egg lecithin, pH 4.6, room temperature and refrigerator",stable for weeks without flocculating out
same,solubility,"[2]; Experiment C: egg lecithin E 100, acetic acid, titrated to pH 4.6, sterile filtration",4000 µg/mL
same,solubility,"[2]; egg lecithin e 100 solution, Experiment B (comparative): 1.0 g egg lecithin E 100, titrated to pH 6.8, sterilized by filtration",4000 µg/mL
same,solubility,"[2]; sucrose/phosphoric acid buffer, Experiment A (comparative): no phospholipid, sucrose/phosphoric acid, titrated to pH 6.8, 0.2 μm filtered",< 100 µg/mL
O=C(C(c1ccccc1)c1ccccc1)N1CCN(CC(O)COc2cccc3ncccc23)CC1 (stereo not drawn),sterile filtration,[3],It was possible to sterilize the resulting solution by filtration
dolastatin 15,solubility in water,[4]; in words,low solubility in water
same,sterile filtration,"[3]; Example 3: active substance 10 mg/ml, phospholipid 100 mg/ml",It was possible to sterilize the solution by filtration
CCS(=O)(=O)Oc1ccc2c(C)c(C)c(=O)oc2c1 [esuprone],solubility in water,[4]; water,15 µg/mL
same,filtration through 0.2 μm or 0.45 μm filter,[3]; [6],could not be filtered either through a 0.2 μm filter or through a 0.45 μm filter
same,particle size of resulting solution,[3]; [6],contained large colloidal particles
CC(C)[C@@](C#N)(CCCN(C)CCc1ccccc1)c1ccccc1 [levemopamil hydrochloride],solubility in water,[4]; in words,adequately soluble in water
same,local intolerance on administration,[5],show problems due to local intolerance on administration (eg. vein irritation on intravenous administration)
